ChEMBL document CHEMBL3098085, “Novel 2-chloro-4-anilino-quinazoline derivatives as EGFR and VEGFR-2 dual inhibitors” (Eur J Med Chem, 2014)

Tests used:
[1] = target: Vascular endothelial growth factor receptor 2 (Homo sapiens, UniProt P35968); assay: Inhibition of VEGFR2 (unknown origin) assessed as inhibition of 33[Pi] incorporation after 60 mins by scintillation counting
[2] = target: Epidermal growth factor receptor (Homo sapiens, UniProt P00533); assay: Inhibition of wild type EGFR (unknown origin) assessed as inhibition of 33[Pi] incorporation after 60 mins by scintillation counting
Epidermal growth factor receptor, sequence (P00533 whole entry): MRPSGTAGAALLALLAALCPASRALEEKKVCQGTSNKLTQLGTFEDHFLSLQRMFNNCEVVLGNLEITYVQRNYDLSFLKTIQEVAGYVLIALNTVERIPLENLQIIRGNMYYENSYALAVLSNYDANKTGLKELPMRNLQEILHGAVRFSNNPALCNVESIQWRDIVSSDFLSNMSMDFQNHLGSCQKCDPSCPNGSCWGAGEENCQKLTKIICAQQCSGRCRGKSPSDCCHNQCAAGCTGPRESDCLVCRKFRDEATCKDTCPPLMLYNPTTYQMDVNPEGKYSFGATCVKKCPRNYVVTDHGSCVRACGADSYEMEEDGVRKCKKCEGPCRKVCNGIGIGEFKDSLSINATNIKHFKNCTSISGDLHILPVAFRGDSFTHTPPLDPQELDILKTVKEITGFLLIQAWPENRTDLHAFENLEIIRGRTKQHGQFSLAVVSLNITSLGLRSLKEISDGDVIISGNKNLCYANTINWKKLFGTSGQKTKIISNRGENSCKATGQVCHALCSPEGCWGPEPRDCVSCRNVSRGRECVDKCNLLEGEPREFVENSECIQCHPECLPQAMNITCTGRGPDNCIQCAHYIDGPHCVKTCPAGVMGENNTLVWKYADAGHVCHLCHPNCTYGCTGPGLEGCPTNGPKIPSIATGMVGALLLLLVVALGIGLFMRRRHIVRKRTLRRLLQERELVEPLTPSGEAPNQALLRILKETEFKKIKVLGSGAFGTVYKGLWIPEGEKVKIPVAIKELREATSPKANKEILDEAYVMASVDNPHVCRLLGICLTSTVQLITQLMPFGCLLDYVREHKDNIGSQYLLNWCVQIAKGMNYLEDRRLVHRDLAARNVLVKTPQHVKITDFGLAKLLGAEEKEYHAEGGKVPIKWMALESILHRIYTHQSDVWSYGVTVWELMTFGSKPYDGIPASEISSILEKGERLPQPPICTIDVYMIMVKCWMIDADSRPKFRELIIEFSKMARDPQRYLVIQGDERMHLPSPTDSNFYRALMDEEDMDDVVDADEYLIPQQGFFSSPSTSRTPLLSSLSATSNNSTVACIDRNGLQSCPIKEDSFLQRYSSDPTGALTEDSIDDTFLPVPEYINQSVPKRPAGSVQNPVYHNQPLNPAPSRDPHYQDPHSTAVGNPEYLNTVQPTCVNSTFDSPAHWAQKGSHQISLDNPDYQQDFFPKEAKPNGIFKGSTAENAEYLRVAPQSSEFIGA

Vascular endothelial growth factor receptor 2, sequence (P35968 whole entry): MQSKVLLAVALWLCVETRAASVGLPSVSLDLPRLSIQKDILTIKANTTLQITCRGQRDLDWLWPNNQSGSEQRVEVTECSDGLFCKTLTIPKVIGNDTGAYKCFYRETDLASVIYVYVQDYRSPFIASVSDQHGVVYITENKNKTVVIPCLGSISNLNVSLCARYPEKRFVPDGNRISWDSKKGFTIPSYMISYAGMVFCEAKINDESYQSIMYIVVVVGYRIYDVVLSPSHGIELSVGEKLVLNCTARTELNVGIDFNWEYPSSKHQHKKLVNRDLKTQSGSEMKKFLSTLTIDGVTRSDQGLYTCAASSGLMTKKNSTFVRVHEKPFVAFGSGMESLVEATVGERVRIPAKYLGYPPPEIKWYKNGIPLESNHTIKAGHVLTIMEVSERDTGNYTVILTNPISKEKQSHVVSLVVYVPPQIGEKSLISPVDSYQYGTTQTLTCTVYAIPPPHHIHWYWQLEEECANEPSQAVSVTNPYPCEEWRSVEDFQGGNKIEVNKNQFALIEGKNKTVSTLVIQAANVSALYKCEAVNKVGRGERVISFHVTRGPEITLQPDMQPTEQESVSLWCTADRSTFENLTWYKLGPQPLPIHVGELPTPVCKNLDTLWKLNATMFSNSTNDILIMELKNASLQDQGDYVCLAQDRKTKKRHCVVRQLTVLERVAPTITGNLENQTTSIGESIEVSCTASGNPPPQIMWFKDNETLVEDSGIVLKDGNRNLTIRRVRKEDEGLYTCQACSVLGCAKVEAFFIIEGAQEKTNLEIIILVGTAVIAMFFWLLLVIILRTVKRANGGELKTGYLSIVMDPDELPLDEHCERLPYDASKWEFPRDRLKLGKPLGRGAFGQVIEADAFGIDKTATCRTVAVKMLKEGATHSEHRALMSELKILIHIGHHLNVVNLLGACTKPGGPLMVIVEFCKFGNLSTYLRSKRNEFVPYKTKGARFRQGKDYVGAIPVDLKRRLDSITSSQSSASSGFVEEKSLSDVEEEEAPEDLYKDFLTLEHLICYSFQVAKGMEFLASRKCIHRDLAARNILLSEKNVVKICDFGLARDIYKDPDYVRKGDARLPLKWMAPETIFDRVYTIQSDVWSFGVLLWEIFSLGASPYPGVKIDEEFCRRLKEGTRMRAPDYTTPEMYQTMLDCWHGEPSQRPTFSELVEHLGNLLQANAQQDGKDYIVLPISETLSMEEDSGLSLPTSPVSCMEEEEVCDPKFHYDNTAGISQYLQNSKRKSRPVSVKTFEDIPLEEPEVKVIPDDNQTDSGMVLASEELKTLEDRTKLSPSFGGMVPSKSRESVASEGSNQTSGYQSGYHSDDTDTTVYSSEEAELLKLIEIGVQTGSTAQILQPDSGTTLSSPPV

SMILES | IC50 [1] [µM] | IC50 [2] [µM]
COc1cc2nc(Cl)nc(Nc3ccc(O)cc3)c2cc1OC | 2.1 | 4.3
CN(C)S(=O)(=O)c1ccc(Nc2nc(Cl)nc3cc4c(cc23)OCO4)cc1 | 23.4 | 18.3
COc1cc2nc(Cl)nc(Nc3ccc(C(=O)O)cc3)c2cc1OC | > 100 | > 100
COc1cc2nc(Cl)nc(Nc3ccc(N(C)C)cc3)c2cc1OC | 39.3 | 36
CN(C)S(=O)(=O)c1ccc(Nc2nc(Cl)nc3ccccc23)cc1 | > 100 | > 100
O=S(=O)(Nc1nccs1)c1ccc(Nc2nc(Cl)nc3cc4c(cc23)OCO4)cc1 | > 100 | > 100
COc1cc2nc(Cl)nc(Nc3ccc(NC(C)=O)cc3)c2cc1OC | 1.99 | 37.6
CN(C)c1ccc(Nc2nc(Cl)nc3cc4c(cc23)OCO4)cc1 | > 100 | > 100
CNS(=O)(=O)c1ccc(Nc2nc(Cl)nc3cc(OC)c(OC)cc23)cc1 | 0.85 | 1.63
COc1cc2nc(Cl)nc(Nc3ccc(S(C)(=O)=O)cc3)c2cc1OC | > 100 | 61.5
COc1cc2nc(Cl)nc(Nc3ccc(S(=O)(=O)Nc4nccs4)cc3)c2cc1OC | 7.79 | 9.7
COc1cc2nc(Cl)nc(Nc3ccc(S(=O)(=O)O)cc3)c2cc1OC | > 100 | > 100
COc1cc2nc(Cl)nc(Nc3ccc(C(N)=O)cc3)c2cc1OC | 1.17 | 0.9
COc1cc2nc(Cl)nc(Nc3ccc(S(=O)(=O)N(C)C)cc3)c2cc1OC | 43.3 | 67.2
COc1cc2nc(Cl)nc(Nc3ccc(S(N)(=O)=O)cc3)c2cc1OC | 1.02 | 2.37
CS(=O)(=O)c1ccc(Nc2nc(Cl)nc3cc4c(cc23)OCO4)cc1 | > 100 | > 100
NS(=O)(=O)c1ccc(Nc2nc(Cl)nc3cc4c(cc23)OCO4)cc1 | 26.9 | 34.6
